Results on 1 compound are retold here after patent US12383526B2, “Optimized sigma-1 agonist method of responder selection and treatment” (ANAVEX LIFE SCIENCES CORP., priority 2018, dated 2025).

Marks after values point to notes of the source that are not given here.

Data set [1] relates to Alzheimer's disease / dementia patients. The data set is described as follows: Sigma-1 agonist responder determination and therapy, single-patient examples 6-13. The following applies: 6 months. Type of data set: in vivo, human. The procedure:
A person presents with diagnosed Alzheimer's disease. Their SIGMAR1 gene is analyzed to the extent that it is determined that they carry glutamine at the 2 position of the SIGMAR1 gene. This is the wildtype. They are treated with A2-73 daily with a 30 mg oral dose. For 6 months.
A person presents with diagnosed Alzheimer's disease. A cheek swab is taken and a genotype assay is performed to determine the presence of the SIGMAR1 2P genotype. By such analysis it is determined that the subject carries glutamine at the 2 position of the SigmaR1 gene receptor (protein). They are treated with ANAVEX2-73 daily with a 30 mg oral dose. For 6 months.
A person presents with diagnosed dementia. Their SIGMAR1 gene is analyzed to the extent that it is determined that they carry proline at the 2 position of the SIGMAR1 gene. They are treated with ANAVEX2-73 daily with a 80 mg oral dose in combination with 1.5 mg oral rivastigmine twice per day for 6 months.
A person presents with diagnosed Alzheimer's disease. […] They are treated with the A2-73 daily with a 30 mg oral dose. For 6 months.
A person presents with diagnosed Alzheimer's disease. […] They are treated with A2-73 daily with a 30 mg oral dose. For 6 months.
A person presents with diagnosed dementia. They carry glutamine at the 2 position of the SIGMAR1 gene. It is determined that they carry the KANSL1_p.P1010L/P304L/P946L mutation. They are treated with ANAVEX2-73 daily with a 70 mg oral dose in combination with 7 mg oral memantine daily for 6 months.

For data set [2] the following is noted: Phase 1 study; 1-60 mg range; male healthy subjects; cited from earlier work.
Data set [3] has as its system subjects with mild-to-moderate AD. Nature of the data set: MMSE (Mini Mental State Examination) change from baseline, 57-week Phase 2a study and 208-week extension study. Type of data set: in vivo, human. The following applies: for MMSE Cohen's d: week 57, compared to standard of care. An excerpt: The present study integrates and analyzes data and samples from two consecutive clinical trials: 57-week study and 208-week study. 57-week study was a multicenter Phase 2a clinical trial of the drug ANAVEX2-73 that recruited a sample of 32 subjects with mild-to-moderate AD. It consisted of two parts: Part A was a simple randomized, open-label, two-period, cross-over, adaptive trial lasting up to 5 weeks. Each period involved one specific administration route and two possible dose levels: in one period the oral dose (30 mg or 50 mg) was administrated and in the other period an intravenous (IV) form (3 mg or 5 mg) was administered, making a total of 8 possible dose administration schemes in Part A (details available in FIG. 2A). The two periods were separated by a wash-out period of 12 days where no dose was given.
Part B, following immediately after Part A, was an open-label extension of the oral daily dose for an additional 52 weeks. The primary endpoint of 57-week study was to establish the safety and tolerability of the drug. Secondary endpoints aimed at establishing the relationship between dosing regimen and pharmacodynamics-exploratory efficacy outcomes of cognition and function. Cognition was assessed by the Mini Mental State Examination (MMSE), while functional abilities by the Alzheimer's Disease Co-operative Study—Activities of Daily Living Inventory (ADCS-ADL). Additional cognitive measures included the Cogstate Brief Battery (CBB), and functional measures of Electroencephalography and Event-Related Potential (EEG and ERP). Part B continued an adaptive oral administration scheme. Table 12 summarizes mean oral dose administration during the 57-week study study.
Due to favorable safety and tolerability profile of the 57-week study (Table 2), and in response to requests from patients and caregivers, a 208-week open-label extension study (208-week study) was carried out immediately after completion of 57-week study Part B. 208-week study enrolled the 24 subjects who completed Part B and applied similarly an adaptive daily oral administration scheme. ANAVEX2-73-003 involves continuous evaluation of safety and efficacy as measured by the MMSE and ADCS-ADL. At week 148 (interim time point for analyses), data on the subjects remaining in the study (n=21) was analyzed for efficacy outcomes. This report was drafted using data available at week 148, while ANAVEX2-73-003 is still ongoing.
Exploratory clinical efficacy in this study was defined as change from baseline of each patient's cognitive (MMSE) and functional ability (ADCS-ADL) scores. The MMSE57 is a widely used, validated instrument in clinical AD research, including as a cognitive outcome measure in drug trials. The range of the scale is from 0 to 30, with a higher score indicating higher cognitive function. The ADCS-ADL58 is undertaken in a structured caregiver interview format and assesses performance in activities of daily living of patients with AD. The scale is from 0 to 78, with a higher score indicating greater function. The ADCS-ADL has shown to have good test-retest reliability 59. The MMSE and the ADCS-ADL were assessed during pre-specified clinical site visits across 14 different time points during the 57-week study (Weeks 0 and 5 in Part A; Weeks 17, 31, 41, 53, and 57 in Part B), and 208-week study (Weeks 70, 83, 96, 109, 122, 135, and 148) studies.
Corresponding Delta scores were calculated using the difference between values at each visit and at baseline for each individual patient, with a focus on Week 57. In addition, to lower the impact of noise in MMSE and ADCS-ADL scores, a Slope was estimated using a linear regression across all available time points for each individual patient. The derived scores describe the progression of exploratory efficacy data from baseline at several specific time points (Deltas) and over a set period of time (Slope). […]

The mark [4] stands for this setting: Absence of COMT_L146fs variant & Baseline MMSE ≥20, N 11.
The mark [5] stands for this setting: Absence of COMT_L146fs variant, N 16.
Where [6] appears, read: Absence of SIGMAR1_Q2P variant, N 16.
The mark [7] stands for this setting: Absence of SIGNAR1_Q2P variant & Baseline MMSE ≥20, N 11.

Take `CN(C)CC1CCOC1(c1ccccc1)c1ccccc1.Cl` (centres unmarked) [ANAVEX2-73, tetrahydro-N,N-dimethyl-2,2-diphenyl-3-furanmethanamine hydrochloride]: the disease course result was “stable and not progress” in data set [1] (Example 6: person, Alzheimer's disease, glutamine at the 2 position of SIGMAR1, 30 mg oral daily); “stable and not progress” in data set [1] (Example 7: person, Alzheimer's disease, glutamine at the 2 position (cheek swab genotype assay), 30 mg oral daily); “stable and not progress” in data set [1] (Example 9: person, dementia, proline at the 2 position of SIGMAR1, 80 mg oral daily in combination with 1.5 mg oral rivastigmine twice per day); “stable and not progress” in data set [1] (Example 10: person, Alzheimer's disease, no COMT rs113895332/rs61143203 mutation, 30 mg oral daily); “stable and not progress” in data set [1] (Example 11: person, Alzheimer's disease, no SIGMAR1 rs1800866, 30 mg oral daily); “stable and not progress” in data set [1] (Example 13: person, dementia, glutamine at the 2 position, KANSL1_p.P1010L/P304L/P946L mutation, 70 mg oral daily in combination with 7 mg oral memantine daily). The “relationship between dose and plasma concentration” value in data set [2] is on record as “linear”. The “MMSE Mean Δ at 57 weeks” value in data set [3] (setting [4]) is reported as 0.18 ± 4.35; in data set [3] (setting [5]), −0.62 ± 4.05; in data set [3] (Absence of SIGMAR1_Q2P variant & Absence of COMT_L145fs variant & Baseline MMSE ≥20, N 10), 0.50 ± 4.45; in data set [3] (setting [6]) it was −0.62 ± 4.11; in data set [3] (setting [7]), 0.27 ± 4.29; in data set [3] (All, N 21), −1.52 ± 4.15. For the same compound, the “MMSE Mean Δ at 57 weeks” value in data set [3] (Baseline MMSE ≥20, N 13) is recorded as −0.15 ± 4.06. For the same compound, the “favorable difference in adjusted MMSE, higher concentration arm compared with low/medium arm” value in data set [3] (MMRM-LME, over 148 weeks) was determined as 78%. In addition, the “MMSE Cohen's d” value in data set [3] (setting [4]) is 0.98**; in data set [3] (setting [5]), 0.81**; in data set [3] (setting [6]) it was 0.81**; in data set [3] (setting [7]) it was 1.01**; in data set [3] (Baseline MMSE ≥20, N 13), 0.94**.
